Legend:
Conditions in all cases: 0.0630 kg/ha
[1] = test system: Velvetleaf, Abutilon theophrasti; assay: Postemergence herbicidal evaluation, ABUTH; type: in vivo, Medic.
In short: (§1)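 Greenhouse postemergence test. Seedlings about two weeks old sprayed (40 psi) with compound in 50/50 acetone/water, 0.5% TWEEN 20, at rates near 0.0157–0.500 kg/ha; rated 0–9 by eye at 4–5 weeks.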

[2] = test system: Ragweed, Common, Ambrosia artemisifolia; assay: Postemergence herbicidal evaluation, AMBEL; type: in vivo, L.
In short: as §1

[3] = test system: Sicklepod, Cassia obtusifolia; assay: Postemergence herbicidal evaluation, CASOB; type: in vivo, L.
In short: as §1

[4] = test system: Lambsquarters, Common, Chenopodium album; assay: Postemergence herbicidal evaluation, CHEAL; type: in vivo, L.
In short: as §1

Galium, Galium aparine = assay: Postemergence herbicidal evaluation, GALAP; type: in vivo
In short: as §1

[5] = test system: Morningglory, Ivyleaf, Ipomoea hederacea; assay: Postemergence herbicidal evaluation, IPOHE; type: in vivo, (L.) Jacq.
In short: as §1

[6] = test system: Barnyardgrass, Echinochloa crus-galli; assay: Postemergence herbicidal evaluation, ECHCG; type: in vivo, (L.) Beau
In short: as §1

[7] = test system: Foxtail, Green, Setaria viridis; assay: Postemergence herbicidal evaluation, SETVI; type: in vivo, (L.) Beau
In short: as §1

[8] = test system: Soybean, Williams, Glycine max; assay: Postemergence herbicidal evaluation, GLXMAW; type: in vivo, (L.) Merr. cv Williams
In short: as §1

[9] = test system: Rice, Tebonnet, Oryza sativa; assay: Postemergence herbicidal evaluation, ORYSAT; type: in vivo, (L.) Tebonnet
In short: as §1

[10] = test system: Wheat, Winter, cv Riband, Triticum aestivum; assay: Postemergence herbicidal evaluation, TRZAWR; type: in vivo
In short: as §1

Corn, Field, Zea mays = assay: Postemergence herbicidal evaluation, ZEAMX; type: in vivo, L.
In short: as §1

Compound | herbicide rating (0-9) [1] | herbicide rating (0-9) [2] | herbicide rating (0-9) [3] | herbicide rating (0-9) [4] | herbicide rating (0-9) (Galium, Galium aparine) | herbicide rating (0-9) [5] | herbicide rating (0-9) [6] | herbicide rating (0-9) [7] | herbicide rating (0-9) [8] | herbicide rating (0-9) [9] | herbicide rating (0-9) [10] | herbicide rating (0-9) (Corn, Field, Zea mays)
Cc1ccc(OCC(=O)OC2CCCC2)c(-c2nsc3ccc(-n4c(=O)cc(C(F)(F)F)n(C)c4=O)cc23)c1 [Compound 84, Cyclopentyl {{2-{5-[3,6-dihydro-3-methyl-2,6-dioxo-4-(trifluoromethyl)-1(2H)-pyrimidinyl)-1,2-benzisothiazol-3-yl}-p-tolyl}oxy}acetate] | 9.0 | 9.0 | 4.0 | 9.0 | 9.0 | 9.0 | 9.0 | 9.0 | 8.0 | 8.0 | 8.0 | 7.5
Cc1ccc(OCC(=O)OC(C)C(C)(C)C)c(-c2nsc3ccc(-n4c(=O)cc(C(F)(F)F)n(C)c4=O)cc23)c1 (stereo not drawn) [Compound 85, 1,2,2-Trimethylpropyl {{2-{5-[3,6-dihydro-3-methyl-2,6-dioxo-4-(trifluoromethyl)-1(2H)-pyrimidinyl]-1,2-benzisothiazol-3-yl}-p-tolyl}oxy}acetate] | 5.0 | 2.0 | 2.0 | 5.0 | 5.0 | 9.0 | 7.0 | 8.0 | 7.0 | 5.0 | 5.5 | 6.5

Source: patent publication US6156700A, “3-(1,2-Benzisothiazol- and isoxazol-5-yl)-2,4(1H,3H)-pyrimidinedione or thione and 3-(1,2-benzisothiazol- and isoxazol-5-yl)-4(3H)-pyrimidinone or thione herbicidal agents” (American Cyanmid Company, priority 1998, dated 2000)
